Results taken from US4462992A, “Nitroimidazole radiosensitizers for hypoxic tumor cells and compositions thereof” (priority 1982, dated 1984).

Columns and labels:
[1] = In vitro cytotoxicity in hypoxic cells (% survival); type: cell-based, Chinese hamster; conditions: hamster, v-79 cells; for viability at 2 h, 50 µM / viability at 4 h, 50 µM: 0.05 mM; for viability at 2 h, 250 µM / viability at 4 h, 250 µM: 0.25 mM; for viability at 4 h, 10 µM / viability at 4 h, 50 µM / viability at 4 h, 100 µM / viability at 4 h, 250 µM: read-out: In vitro cytoxicity in hypoxic cells (% survival at 4 hours)
Protocol: (§1) Asynchronous monolayers of cultures of Chinese hamster cells line V-79 were employed in all experiments. The monolayers were derived from exponentially growing cultures. Methods of culturing and handling have been reported earlier by Cooke et al, Rad. Res. 65, 152 (1976). The plated cultures were rendered hypoxic in sealed dural containers capable of holding seven petri dishes, by purging with nitrogen (oxygen-free grade) for one hour. Irradiation was carried out by using a cobalt-60 source at a dose rate of approximately 240 rad/min according to the procedure described by Agrawal et al Rad. Res. 78:532 (1979). A dose of 1400 rad was given to hypoxic cells in glass petri dishes in the presence of a given drug concentration (2000 cells/dish). Cell survival was estimated from unirradiated toxic hypoxic cells exposed to the same drug concentration. Complete survival curves were obtained for each compound at the radiation doses of 400 to 3000 rad. The Do value was calculated for each compound and the ratio of the Do value for the hypoxic control cells to the Do value of the hypoxic drug treated cells provided the sensitized enhancement ratio of the corresponding agent.
(§2) Cultures were incubated for 6 days at 37° C. in an atmosphere of 5% CO2. The resulting colonies were fixed in absolute ethanol and stained with methylene blue and counted.
(§3) To determine toxicity in vitro, glass petri dishes containing approximately 200 Chinese hamster cells/dish were exposed to a range of concentrations of each drug for 2 hours and/or 4 hours at 37° C. Drug concentrations between 10 μM and 0.5 mM were employed initially.

[2] = system: Chinese hamster cells line V-79; assay: Radiosensitization (enhancement ratio, cobalt-60 irradiation of hypoxic cells); type: cell-based
Protocol: as §1, §2

[3] = In vitro cytotoxicity in oxic cells (% survival); type: cell-based, Chinese hamster; conditions: hamster, v-79 cells, oxic, 2 hours, read-out: In vitro cytoxicity in oxic cells (% survival at 2 hours); for viability at 2 h, 100 µM: 0.1 mM; for viability at 2 h, 500 µM: 0.5 mM; for viability at 2 h, 1000 µM: 1.0 mM; for viability at 2 h, 5000 µM: 5.0 mM
Protocol: as §1, §2, §3

[4] = 2 hours, read-out: In vitro cytoxicity in hypoxic cells (% survival at 2 hours)

Row | SMILES | viability at 2 h, 10 µM ([1]; 2 hours, 0.01 mM, read-out: In vitro cytoxicity in hypoxic cells (% survival at 2 hours)) | viability at 2 h, 50 µM [1, 4] | viability at 2 h, 100 µM ([1]; 2 hours, 0.1 mM, read-out: In vitro cytoxicity in hypoxic cells (% survival at 2 hours)) | viability at 2 h, 250 µM [1, 4] | viability at 4 h, 10 µM ([1]; 0.01 mM) | viability at 4 h, 50 µM [1] | viability at 4 h, 100 µM ([1]; 0.1 mM) | viability at 4 h, 250 µM [1] | Radiosensitization (enhancement ratio in Chinese hamster cells) ([2]; 0.1 mM) | viability at 2 h, 100 µM [3] | viability at 2 h, 500 µM [3] | viability at 2 h, 1000 µM [3] | Radiosensitization (enhancement ratio in Chinese hamster cells) ([2]; 1.0 mM) | Radiosensitization (enhancement ratio in Chinese hamster cells) ([2]; 0.05 (mM not given)) | viability at 2 h, 5000 µM [3]
1 | O=C(OC[C@H]1O[C@@H](n2ccnc2[N+](=O)[O-])[C@@H](OC(=O)c2ccccc2)[C@@H]1OC(=O)c1ccccc1)c1ccccc1 [F, 1(2',3',5tri-O--benzoylD-arabinofuranosyl)-2-nitroimidazole] | 102% | 102% | 97% | 105% | 103% | 104% | 89% | 73% | 1.1 | – | – | – | – | – | –
2 | O=[N+]([O-])c1nccn1COCCO [M, 1-[(2-hydroxyethoxy)methyl]-2-nitroimidazole] | – | – | – | – | – | – | – | – | – | 99.5% | 106% | 104% | 2.1 | – | –
3 | O=C(OC[C@H]1O[C@H](n2ccnc2[N+](=O)[O-])[C@@H](OC(=O)c2ccccc2)[C@@H]1OC(=O)c1ccccc1)c1ccccc1 [E, 1(2',3',5tri-O--benzoylD-arabinofuranosyl)-2-nitroimidazole] | – | 84% | – | 12% | 80% | 76% | 46% | 2.6% | – | – | – | – | – | 1.0 | –
4 | O=[N+]([O-])c1nccn1C1CCCO1 (stereo not shown) [I, 1-(Tetrahydro-2-furanyl)-2-nitroimidazole] | – | – | – | – | – | – | – | – | – | 98.8% | 101% | 87.1% | 1.6 | – | 79.5%
5 | O=[N+]([O-])c1nccn1C1O[C@H](CO)[C@@H](O)[C@@H]1O (stereo partly drawn) [D, 1(D-Arabinofuranosyl)-2-nitroimidazole] | – | – | – | – | – | – | – | – | – | 105% | 104% | 99% | 1.7 | – | 116%
6 | O=[N+]([O-])c1nccn1C1C[C@H](O)[C@@H](CO)O1 (stereo partly drawn) [G, 1(2-deoxy-D-erythro-pentofuranosyl)-2-nitroimidazole] | – | – | – | – | – | – | – | – | – | 95.3% | 88.9% | 93% | 1.9 | – | 82.4%
7 | O=[N+]([O-])c1nccn1C1CCCCC1O (stereo not shown) [L, 1-(2-Hydroxycyclohexyl)-2-nitroimidazole] | – | – | – | – | – | – | – | – | – | 98.2% | 90.3% | 86% | 2.0 | – | –
8 | O=[N+]([O-])c1nccn1C1CCCC1O (stereo not shown) [K, 1-(2-Hydroxycyclopentyl)-2-nitroimidazole] | – | – | – | – | – | – | – | – | – | 112% | 110% | 107% | 2.0 | – | 94.7%
9 | O=[N+]([O-])c1nccn1C1CCCCO1 (stereo not shown) [J, 1-(Tetrahydro-2-pyranyl)-2-nitroimidazole] | – | – | – | – | – | – | – | – | – | 106% | 101% | 105% | 1.7 | – | 94.9%
